Measurements published in patent US7528150B2, “Urea derivatives having vanilloid receptor antagonist activity” (Glaxo Group Limited, priority 2003, dated 2009).

biological target: T1, human VR1 (Homo sapiens, UniProt Q8NER1); assay: FLIPR based calcium assay, antagonism of capsaicin response in 1321N1 cells stably expressing human VR1; assay type: cell-based; conditions: transfected astrocytoma 1321N1 cells expressing human VR1; capsaicin as agonist; pKb generated from IC50 using the Cheng-Prusoff equation
T1 construct: expressed in transfected cells; host or cells: astrocytoma 1321N1 cells, stably transfected
T1 sequence (Q8NER1 whole entry): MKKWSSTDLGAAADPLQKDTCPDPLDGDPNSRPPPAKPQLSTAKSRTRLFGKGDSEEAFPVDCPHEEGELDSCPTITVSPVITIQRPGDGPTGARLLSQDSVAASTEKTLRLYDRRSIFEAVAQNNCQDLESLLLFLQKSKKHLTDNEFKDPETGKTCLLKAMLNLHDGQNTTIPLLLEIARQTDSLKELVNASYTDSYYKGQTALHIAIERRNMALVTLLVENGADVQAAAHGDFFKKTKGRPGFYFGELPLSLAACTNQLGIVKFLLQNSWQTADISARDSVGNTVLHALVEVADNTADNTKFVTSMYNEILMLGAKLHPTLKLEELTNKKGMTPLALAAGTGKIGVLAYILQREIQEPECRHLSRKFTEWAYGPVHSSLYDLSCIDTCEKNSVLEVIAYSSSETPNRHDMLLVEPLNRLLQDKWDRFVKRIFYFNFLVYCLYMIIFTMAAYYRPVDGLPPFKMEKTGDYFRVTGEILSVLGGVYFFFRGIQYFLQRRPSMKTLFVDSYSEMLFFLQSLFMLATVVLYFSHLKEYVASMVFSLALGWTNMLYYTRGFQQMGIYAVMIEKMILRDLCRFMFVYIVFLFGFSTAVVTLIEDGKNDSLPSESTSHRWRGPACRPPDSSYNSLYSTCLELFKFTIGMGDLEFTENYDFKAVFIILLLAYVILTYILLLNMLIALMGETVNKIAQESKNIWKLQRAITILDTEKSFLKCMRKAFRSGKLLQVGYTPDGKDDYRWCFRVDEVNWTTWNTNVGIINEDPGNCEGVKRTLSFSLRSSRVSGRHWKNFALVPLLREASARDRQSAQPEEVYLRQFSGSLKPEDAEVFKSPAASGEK
Experimental: The screen used for the compounds of this invention was based upon a FLIPR based calcium assay, similar to that described by Smart et al. (British Journal of Pharmacology, 2000, 129, 227-230). Transfected astrocytoma 1321N1 cells, stably expressing human VR1, were seeded into FLIPR plates at 25,000 cells/well (96-well plate) and cultured overnight.
The cells were subsequently loaded in medium containing 4 μM Fluo-3 AM (Molecular Probes) for 2 h, at room temperature, in the dark. The plates were then washed 4 times with Tyrode containing 1.5 mM calcium, without probenecid. The cells were pre-incubated with compound or buffer control at room temperature for 30 min. Capsaicin (Sigma) was then added to the cells. Compounds having antagonist activity against the human VR1 were identified by detecting differences in fluorescence when measured after capsaicin addition, compared with no compound buffer controls. Thus, for example, in the buffer control capsaicin addition results in an increase in intracellular calcium concentration resulting in fluorescence. A compound having antagonist activity blocks the capsaicin binding to the receptor, there is no signalling and therefore no increase in intracellular calcium levels and consequently lower fluorescence. pKb values are generated from the IC50 values using the Cheng-Prusoff equation.

Kb, < 100 nM:
Cc1cc2c(NC(=O)N[C@@H]3CCN(Cc4cccc(Cl)c4)C3)cccc2cn1 [Example 14]
Cc1cc2c(NC(=O)N[C@@H]3CCN(Cc4cccc(C(F)(F)F)c4)C3)cccc2cn1 [Example 16]
Cc1nccc2c(NC(=O)NC3CN(Cc4ccccc4C(F)(F)F)C3)cccc12 [Example 22]
Cc1cc2c(NC(=O)N[C@@H]3CCN(Cc4ccc(C(F)(F)F)cc4)C3)cccc2cn1 [Example 17]
